From ChEMBL document CHEMBL3045257, “Pyrenocines J-M: four new pyrenocines from the endophytic fungus, Phomopsis sp” (2012)

What was measured:
[1] = tested on: Microbotryum violaceum; assay: Antifungal activity against Microbotryum violaceum by agar diffusion test; format: functional
[2] = tested on: Escherichia coli; assay: Antimicrobial activity against Escherichia coli by agar diffusion test; format: functional
[3] = tested on: Priestia megaterium; assay: Antimicrobial activity against Bacillus megaterium by agar diffusion test; format: functional
[4] = tested on: [Chlorella] fusca; assay: Antialgal activity against 'Chlorella' fusca by agar diffusion test; format: functional, Scenedesmus fuscus
[5] = tested on: Zymoseptoria tritici; assay: Antifungal activity against Zymoseptoria tritici by agar diffusion test; format: functional
[6] = tested on: Botrytis cinerea; assay: Antifungal activity against Botryotinia fuckeliana by agar diffusion test; format: functional
[7] = tested on: Phytophthora infestans; assay: Antifungal activity against Phytophthora infestans by agar diffusion test; format: functional
[8] = tested on: Pyricularia oryzae; assay: Antifungal activity against Magnaporthe oryzae by agar diffusion test; format: functional

| Molecule | inhibition zone (IZ) [1] | inhibition zone (IZ) [2] | inhibition zone (IZ) [3] | inhibition zone (IZ) [4] | inhibition zone (IZ) [5] | inhibition zone (IZ) [6] | inhibition zone (IZ) [7] | inhibition zone (IZ) [8] | inhibition zone (IZ) ([4]; Scenedesmus fuscus) |
| --- | --- | --- | --- | --- | --- | --- | --- | --- | --- |
| C[C@@H]1C[C@@H]([C@H](O)CC2CC(=O)NC(=O)C2)C(=O)[C@@H](C)C1 [CYCLOHEXIMIDE] | 50 mm | 0 mm | 0 mm | 35 mm |  |  |  |  |  |
| CC1(C)S[C@@H]2[C@H](NC(=O)Cc3ccccc3)C(=O)N2[C@H]1C(=O)O [PENICILLIN G] | 0 mm | 14 mm | 18 mm | 0 mm |  |  |  |  |  |
| COc1cc(=O)oc2c1CO[C@@H](CC(C)=O)C2 [PYRENOCINE K] | 5 mm | 6 mm | 8 mm | 6 mm | 6 mm | 0 mm | 0 mm | 0 mm |  |
| CCC[C@@H](Cc1oc(=O)cc(OC)c1CO)OC(C)=O [PYRENOCINE L] | 0 mm | 10 mm | 9 mm | 10 mm | 0 mm | 0 mm | 0 mm | 0 mm |  |
| CCCCCc1oc(=O)cc(OC)c1CO [PYRENOCINE M] | 5 mm | 5 mm | 9 mm | 5 mm | 6 mm | 0 mm | 0 mm | 0 mm |  |
| CN(C)[C@@H]1C(O)=C(C(N)=O)C(=O)[C@@]2(O)C(O)=C3C(=O)c4c(O)cccc4[C@@](C)(O)[C@H]3C[C@@H]12 [TETRACYCLINE] | 0 mm | 18 mm | 18 mm | 10 mm |  |  |  |  |  |
| NYSTATIN | 20 mm | 0 mm | 0 mm |  |  |  |  |  | 0 mm |
